Data on two substances can be found in patent US10689622B2, “Culture medium for proliferating stem cell, which contains sulfated compound” (AJINOMOTO CO., INC., priority 2012, dated 2020).

The target in series [1] is T1, bFGF (Homo sapiens, UniProt P09038).
T1 construct: purchased Lonza (via TAKARA BIO INC.) Ser. No. 00/190,632
Kind of series: Evaluation of bFGF stabilization in Lonza serum-free medium (ELISA). The series is classed as biochemical. Conditions: for effectiveness ELISA: effectiveness in ELISA evaluation of mesenchymal stem cells (medium), 4° C. control ratio. In a few lines: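 Compound in PBS diluted 10-fold into serum-free medium and held sealed at 37 °C for 7 days (some sets 3 days). Remaining bFGF quantified by human bFGF sandwich ELISA against a standard curve. Controls were compound-free PBS-medium kept at 37 °C or 4 °C for the same period.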
Background: An ELISA detects its analyte on a solid surface through an enzyme-linked reagent.

Series [2] in a line: Measurement of content level of sulfur in test compound (ICP). Conditions: ICPS-8100, evaluation samples containing 0.01 wt % test compound. The series is classed as physicochemical. In a few lines:
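Sulfur content was measured by ICP emission spectrometry on samples containing 0.01 wt % test compound. Values came from a calibration curve of sulfur standards at 0, 1, 10, 30 and 50 ppm.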

Series [3] addresses T1, bFGF. Kind of series: Evaluation of bFGF stabilization in Essential 8 medium (ELISA). The series is classed as biochemical. Conditions: 37° C. for 7 days. In a few lines: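 Test compound in PBS diluted 10-fold into serum-free medium (Essential 8 or ReproFF2), held sealed at 37° C for 7 days; remaining bFGF quantified by ELISA against a standard curve. Controls: PBS without compound diluted into each medium, held 7 days at 37° C or 4° C.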

The next series concerns iPS cell 201B7 strain. Nature of the series: iPS cell proliferation system (cell number). The series is classed as cell-based, human. Conditions: matrigel, Essential-8 medium. The procedure:
The cell proliferation effect of various test compounds was evaluated using artificial pluripotent stem cell (iPS cell). 201B7 strain purchased from iPS Academia Japan, Inc. was grown in a culture container coated with a basal lamina matrix (matrigel manufactured by Nippon Becton Dickinson Company, Ltd., or a fragment containing an active domain of laminin 511 purchased from OSAKA UNIVERSITY) (Becton, Dickinson and Company, Falcon culture petri dish or Falcon culture plate), contained in a feeder-free medium for human ES/iPS cell (ReproCELL Inc, ReproFF2).
In this medium were suspended iPS cells in colony state, and a 2.5- to 3.5-fold diluted amount of the original culture was plated on a 6-well culture plate coated with a basal lamina matrix (Nippon Becton Dickinson Company, Ltd., Falcon culture plate). […] After culturing for 6 to 12 days, the medium was removed, the cells were detached from the culture plate by a trypsin-EDTA (Sigma-Aldrich Ltd.) or TrypLE Select (Invitrogen) treatment and the cell number was measured. The cell number was measured by the method described in “Kaitei Saibou baiyou Nyuumon Note, page 77-83, 2010, YODOSHA CO., LTD.” which is incorporated herein by reference in its entirety.
When the cells were seeded in a dissociation state of the cells (single cell state), a test compound solution after filter sterilization was added to a medium containing Y-27632 (Nacalai Tesque) to a given concentration, and dispensed to a 6 well culture plate. Thereto were plated iPS cells suspended in a medium containing Y-27632 at 100,000 cells/well, and cultured for 6 to 8 days. On the next day of seeding, the medium was exchanged to a medium (without Y-27632) added with the test compound alone. When medium exchange was necessary, the medium was exchanged every 2 or 3 days. […] After culturing for 6 to 8 days, the cell number was measured by a method similar to that mentioned above.
When the evaluation was performed in Essential 8 medium (Invitrogen), which is a different feeder-free medium for iPS cell, iPS cells cultured in a medium obtained by adding human serum albumin (Sigma-Aldrich Co. LLC) to Essential 8 medium were used.

For series [4], the system named is Human bone marrow-derived mesenchymal stem cells. Nature of the series: Mesenchymal stem cell proliferation system (cell number by DNA quantification). Conditions: for effectiveness cells: growth of mesenchymal stem cell, control ratio.
Protocol: Human bone marrow-derived mesenchymal stem cells (Lonza, Human Mesenchymal Stem Cell) cultured in mesenchymal stem cell-dedicated medium (Lonza, MSCGM) or Dulbecco's Modified Eagle Medium (Invitrogen, GIBCO D-MEM) containing inactivated fetal bovine serum (Invitrogen, GIBCO FBS) and penicillin-streptomycin (Sigma-Aldrich Co. LLC.) were cultured in exchanged Lonza serum-free medium. The mesenchymal stem cells thus-acclimated to serum-free culture were suspended in Lonza serum-free medium, and seeded on a 24 well culture plate (Nippon Becton Dickinson Company, Ltd., Falcon culture plate) at 20,000 cells/well or a 6 well culture plate (Nippon Becton Dickinson Company, Ltd., Falcon culture plate) at 50,000 cells/well. Then, a test compound solution after filter sterilization and adjustment to a given concentration was added, and the cells were cultured in an incubator (Thermo Scientific, Forma incubator) under the 5% CO2/37° C. conditions for 7 to 8 days. When the medium exchange was necessary, the medium was exchanged 2 to 3 days after the seeding. In this case, the test compound solution was also added again in the same manner as in seeding. In this case, various compound solutions were added again in the same manner as in seeding. After culturing for 7 to 8 days, the medium was removed and DNA quantification was performed. As a control, the cells were cultured in the same manner in a medium without a test compound and added with phosphate buffered saline.
The medium in the 24 well culture plate was removed, and the cells were washed with phosphate buffered saline. The sodium lauryl sulfate solution (500 μl/well) was added, and the mixture was left standing at 37° C. for 4 hours. The sodium lauryl sulfate solution (1.0 ml) was also added to a cell pellet with a known cell number, and the mixture was left standing at 37° C. for 4 hours. As for the cells in the 24 well culture plate, a part (50 μl) of the lysate was transferred to a 96 well black microplate. The solution used for treating the cell pellets was successively diluted with sodium lauryl sulfate solution and used as solutions for drawing an analytical curve. Also, a part (50 μl) of the solutions for drawing an analytical curve was each transferred to the 96 well black microplate. […] The fluorescence was measured by a microplate reader (excitation wavelength: 355 nm, measurement wavelength: 460 nm) within 5 minutes from the addition. The cell number of the 24 well cell culture plate was calculated from the analytical curve drawn (conversion formula). The evaluation criteria were as follows.
[5] abbreviates: Lonza serum-free medium, 37° C. for 7 days, test compound 25 ng/ml.
Setting [6] is: Lonza serum-free medium, 37° C. for 7 days, test compound 250 ng/ml.
[7] abbreviates: Lonza serum-free medium, 37° C. for 7 days, test compound 25 μg/ml.
[8] abbreviates: Lonza serum-free medium, 37° C. for 7 days, test compound 250 μg/ml.

T1 sequence (P09038 143-288): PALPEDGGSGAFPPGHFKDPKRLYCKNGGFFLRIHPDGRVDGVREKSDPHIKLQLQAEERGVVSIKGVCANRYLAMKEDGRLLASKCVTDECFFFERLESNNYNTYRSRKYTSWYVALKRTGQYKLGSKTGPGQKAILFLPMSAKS

For maltotriose SO3Na, the “bFGF concentration relative to that of 4° C. control (ELISA)” value (from here on “bFGF concentration relative to that”) on bFGF [1] (setting [5]) is “x (bFGF concentration was less than 10% relative to that of 4 °C control)”; on bFGF [1] (setting [6]) it was “x (bFGF concentration was less than 10% relative to that of 4 °C control)”; on bFGF [1] (setting [7]), “+ (bFGF concentration was not less than 30% and less than 50% relative to that of 4 °C control)”; at bFGF [1] (setting [8]) it was “+++ (bFGF concentration was not less than 70% relative to that of 4 °C control)”; on bFGF [3] (test compound 250 pg/ml) it was “x (bFGF concentration was less than 10% relative to that of 4 °C control)”; at bFGF [3] (test compound 25 ng/ml), “x (bFGF concentration was less than 10% relative to that of 4 °C control)”. For the same substance, the “bFGF concentration relative to that” value at bFGF [3] (test compound 250 ng/ml) was “− (bFGF concentration was not less than 10% and less than 30% relative to that of 4 °C control)”; on bFGF [3] (test compound 25 μg/ml), “+++ (bFGF concentration was not less than 70% relative to that of 4 °C control)”; on bFGF [3] (test compound 250 μg/ml), “+++ (bFGF concentration was not less than 70% relative to that of 4 °C control)”. The “effectiveness ELISA” value on bFGF [1] is “+++ (+++ 70%<)”. Further, the “sulfur content Found (inorganic analysis)” value in series [2] is 13 wt %. For the same substance, on bFGF [3], the “concentration showing a suppressive effect on a decrease in the bFGF concentration of the medium” value is listed as “not less than 250 ng/ml”. Further, the “number of cells relative to control” value with iPS cell 201B7 strain (test compound 25 ng/ml) and in the series on iPS cell 201B7 strain (test compound 250 ng/ml) was “◯ (not less than 100%: ◯)” throughout. Besides, the effectiveness cells entry in series [4] is given as “⊚ (⊚ not less than 120%)”.

In the case of maltoheptaose SO3Na, the “concentration showing a suppressive effect on a decrease in the bFGF concentration in the medium” value at bFGF [1] (Lonza serum-free medium, 37° C. for 3 days) is given as “not less than 25 ng/ml”. The “bFGF concentration relative to that” value at bFGF [1] (Lonza serum-free medium, 37° C. for 3 days, test compound 25 ng/ml) is “− (bFGF concentration was not less than 10% and less than 30% relative to that of 4 °C control)”; at bFGF [1] (Lonza serum-free medium, 37° C. for 3 days, test compound 250 ng/ml) it was “++ (bFGF concentration was not less than 50% and less than 70% relative to that of 4 °C control)”; on bFGF [1] (Lonza serum-free medium, 37° C. for 3 days, test compound 25 μg/ml) it was “++ (bFGF concentration was not less than 50% and less than 70% relative to that of 4 °C control)”; on bFGF [1] (Lonza serum-free medium, 37° C. for 3 days, test compound 250 μg/ml), “++ (bFGF concentration was not less than 50% and less than 70% relative to that of 4 °C control)”; at bFGF [1] (setting [5]) it was “+ (bFGF concentration was not less than 30% and less than 50% relative to that of 4 °C control)”; at bFGF [1] (setting [6]) it was “x (bFGF concentration was less than 10% relative to that of 4 °C control)”. The “bFGF concentration relative to that” value at bFGF [1] (setting [7]) is “+++ (bFGF concentration was not less than 70% relative to that of 4 °C control)”; at bFGF [1] (setting [8]), “++ (bFGF concentration was not less than 50% and less than 70% relative to that of 4 °C control)”; at bFGF [3] (test compound 250 pg/ml) it was “x (bFGF concentration was less than 10% relative to that of 4 °C control)”; at bFGF [3] (test compound 25 ng/ml) it was “x (bFGF concentration was less than 10% relative to that of 4 °C control)”; at bFGF [3] (test compound 250 ng/ml), “+ (bFGF concentration was not less than 30% and less than 50% relative to that of 4 °C control)”; on bFGF [3] (test compound 25 μg/ml), “+++ (bFGF concentration was not less than 70% relative to that of 4 °C control)”. Moreover, at bFGF [3] (test compound 250 μg/ml), the “bFGF concentration relative to that” value was “+++ (bFGF concentration was not less than 70% relative to that of 4 °C control)”. The “effectiveness ELISA” value at bFGF [1] is recorded as “+++ (+++ 70%<)”. Besides, the “sulfur content Found (inorganic analysis)” value in series [2] came out at 16 wt %. In addition, the “concentration showing a suppressive effect on a decrease in the bFGF concentration of the medium” value at bFGF [3] is “not less than 250 ng/ml”. The “number of cells relative to control” value in the series on iPS cell 201B7 strain (test compound 25 ng/ml) is recorded as “⊚ (not less than 120%: ⊚)”; in the series with iPS cell 201B7 strain (test compound 250 ng/ml), “— (100%-50%: —)”. Moreover, the effectiveness cells entry in series [4] is given as “⊚ (⊚ not less than 120%)”. In addition, the “concentration showing promoted cell proliferation as compared to the control” value in series [4] (mesenchymal stem cells, Lonza serum-free medium) was found to be 250 ng/mL.
